Assay results taken from article PMC3614957 (PLoS ONE, 2013).

Columns and labels:
PBMC = assay: Membrane dipole potential assessed by di-8-ANEPPS, PBMC; assay type: cell-based, human; conditions: up to 6 µM
Experimental: (§1) Human blood samples were obtained from healthy volunteers, with their previous written informed consent, at the Instituto Português do Sangue (Lisbon, Portugal). This study was approved by the ethics committee of the Faculdade de Medicina da Universidade de Lisboa. Isolation of erythrocytes and PBMC and labeling of these cells with di-8-ANEPPS (Invitrogen, Carlsbad, CA, USA) were performed as described before, [29]. […] They were incubated at 1% hematocrit in buffer supplemented with 0.05% (m/v) Pluronic F-127 (Sigma) and di-8-ANEPPS 10 µM. PBMC were isolated by density gradient using Ficoll-Paque Plus (GE Healthcare, Little Chalfont, UK) and counted in a Neubauer improved hemocytometer. They were incubated at 3000 cells/µL in Pluronic-supplemented buffer with 3.3 µM di-8-ANEPPS. Cells were incubated with the fluorescent probe during 1 h, with gentle agitation, and unbound probe was washed with Pluronic-free buffer on two centrifugation cycles. […] For lipid vesicles labeling, suspensions with […] of total lipid were incubated overnight with di-8-ANEPPS 10 µM, to ensure maximum incorporation of the probe. The maximum concentration of DMSO or DMSO:ethanol in the suspensions was 2.4% (v/v) at 6 µM of peptide or cholesterol. […] The variation of R with the peptide concentration was analyzed by a single binding site model: [drawing 5] […]

[1] = Membrane dipole potential assessed by di-8-ANEPPS, labeled lipid vesicles; assay type: physicochemical; conditions: di-8-ANEPPS labeled LUV, control additions (data not shown)
Experimental: as §1

human erythrocytes = assay: Membrane dipole potential assessed by di-8-ANEPPS, erythrocytes; assay type: cell-based; conditions: up to 6 µM
Experimental: as §1

[2] = design: method as in 2 sources, one per row (each row's own in cited_ref): ref 35 = [35]; PMID 14514352; doi:10.1042/BJ20031350; 35 Veiga S , Henriques S , Santos NC , Castanho MARB ( 2004 ) Putative role of membranes in the HIV fusion inhibitor enfuvirtide mode of action at the molecular level . Biochem J 377 : 107 – 110 . 145 ||| ref 8, 29 = [8]; PMID 18410103; doi:10.1021/ja711247n; 8 Franquelim HG , Loura LM , Santos NC , Castanho MARB ( 2008 ) Sifuvirtide screens rigid membrane surfaces. establishment of a correlation between efficacy and membrane domain selectivity among HIV f || [29]; PMID 21075080; doi:10.1016/j.bbrc.2010.11.013; 29 Matos PM , Freitas T , Castanho MARB , Santos NC ( 2010 ) The role of blood cell membrane lipids on the mode of action of HIV-1 fusion inhibitor sifuvirtide . Biochem Biophys Res Commun 403 : 270 –; conditions: cited from earlier work

| Compound | effect on membrane dipole potential (PBMC) | changes on the dipole potential [1] | effect on membrane dipole potential (human erythrocytes) | binding to POPC vesicles [2] |
| --- | --- | --- | --- | --- |
| CC(C)CCC[C@@H](C)[C@H]1CC[C@H]2[C@@H]3CC=C4C[C@@H](O)CC[C@]4(C)[C@H]3CC[C@]12C [cholesterol] | not sufficient to induce a detectable membrane potential change | no changes | not sufficient to induce a detectable membrane potential change | – |
| sifuvirtide | – | – | – | residual binding |
